The text below walks through data of patent US5552156A, “Liposomal and micellular stabilization of camptothecin drugs” (Ohio State University, priority 1995, dated 1996).

Where “and” joins values, the source holds several entries; their conditions need not be identical. Equal values may be shown once.

The nature of data set [1]: Steady-state fluorescence anisotropy in solvents and liposomes. The following applies: for steady-state anisotropy (a), DMPC: DMPC liposomes, 1/a vs. 1/[lipid] plot; for steady-state anisotropy (a), DMPC / steady-state anisotropy (a), DMPG / steady-state anisotropy (a), PBS / steady-state anisotropy (a), glycerol / steady-state anisotropy (a), octanol / steady-state anisotropy (a), DSPC: 37° C.; for steady-state anisotropy (a), DMPG: DMPG liposomes; for steady-state anisotropy (a), PBS / steady-state anisotropy (a), glycerol / steady-state anisotropy (a), octanol: 1 μM drug; for limiting fluorescence anisotropy a0: extrapolated to -25° C.; for limiting fluorescence anisotropy a0 / steady-state anisotropy (a), glycerol: glycerol; for steady-state anisotropy (a), DSPC: DSPC liposomes. It counts as physicochemical. As to the method: Steady-state fluorescence measurements were obtained on a SLM Model 4800C. spectrofluorometer with a thermostated cuvette compartment. This instrument was interfaced with an IBM PS/2 model 55 SX computer. Excitation and emission spectra were recorded with an excitation resolution of 8 nm and an emission resolution of 4 nm. In all cases spectra were corrected for background fluorescence and scatter from unlabeled lipids or from solvents by subtraction of the spectrum of a blank. Steady-state fluorescence intensity measurements were made in the absence of polarizer. Steady-state anisotropy (a) measurements were determined with the instrument in the "T-format" for simultaneous measurement of two polarized intensities. The alignment of polarizers were checked routinely using a dilute suspension of 0.25 μm polystyrene microspheres from Polysciences, Inc, Warrington, Pa., in water; anisotropy values of >0.99 were obtained. The anisotropy was calculated from a=(Ivv -GlVH)/(Ivv +GIVH), where G-IVH /IHH and the subscripts refer to vertical and horizontal orientations of the excitation and emission polarizers, respectively.
Anisotropy measurements for camptothecin, camptothecin carboxylate sodium salt, and 10,11-methylenedioxycamptothecin were conducted using exciting light of 370 nm and 420 nm long wave pass filters on each emission channel in order to isolate the fluorescence signal from background scatter and signal. For topotecan a 400 nm excitation wavelength and a 500 nm emission filter were used and for 9-aminocamptothecin a 375 nm excitation and a wavelength 420 nm emission filter were used. For AMC and CMC, a 370 nm excitation wavelength and a 400 nm emission filter were used. For 10-hydroxycamptothecin 375 nm excitation wavelength 500 nm emission filter was used. Emission filters were obtained from Oriel Corp. Stamford, Conn. The combination of exciting light and emission filters allows one to adequately separate the fluorescence from the background signal. The contribution of background fluorescence, together with scattered light, was typically less than 1% of the total intensity. Since the lactone ring of the camptothecin drug undergoes hydrolysis in aqueous medium, all measurements were completed within the shortest possible time, less than 1 minute after mixing the drug stock solution with PBS or the liposomes. In each case, analysis was initiated immediately after mixing the drug stock solution with PBS or with the liposomes. All measurements were performed at 37° C. unless otherwise noted.
While the spectral changes provide qualitative evidence that the camptothecin drugs bind the liposome membranes, fluorescence anisotropy titration, offers the most sensitive means for quantitatively assessing the extent of the binding. The fluorescence anisotropy titration was performed according to the method of Burke and Tritton, Biochemistry 24: 1768-1776 (1985).
A steady-state fluorescence anisotropy (a) measurement is related to the rotational rate of the fluorescent molecule through the Perrin Equation: […]
where a0 is the limiting fluorescence anisotropy value, that is, the anisotropy value in the absence of depolarizing rotations, T is the excited-state lifetime, and .phi. is the rotational correlative time of the fluorophore. According to Equation 1, changes in either the T or .phi. values of a fluorescent compound can modulate its steady-state anisotropy.
The limiting fluorescence anisotropy (a0) values were also measured. The maximum values of (a) were obtained by dissolving the camptothecin drugs in the viscous solvent glycerol and cooling the samples to low temperatures. Steady-stated anisotropy (a) values were determined for samples containing 1 μM drug at 37° C.
Where the solvent viscosity is high and temperature is low, depolarizing rotations are at a minimum. By extrapolating these (a) values to -25° C., the limiting anisotropy values (a0) for the camptothecin drugs, were determined. […]

In data set [2] the test system is lung, breast, and malignant melanoma. The following applies: background; cited from earlier work.
The nature of data set [3]: HPLC assay of lactone ring hydrolysis, free in PBS or associated with liposomes or micelles. It counts as physicochemical.
Data set [4] in a line: Iodide quenching of camptothecin fluorescence. It counts as physicochemical. The text has this: Additional evidence that the fluorochrome of the camptothecin drugs penetrates into the membrane of the liposome comes from iodide quenching data. Iodide has an immeasurably small permeation of the liposome membrane and is able to discriminate between camptothecin drug molecules free in solution and those molecules located in the interior of the liposome membrane. These methods have been described in detail in Burke and Tritton, Biochemistry (1985) 24: 5972-5980; G. L. Jendrasiak, Chem. Phys. Lipids 9: 133-146 (1992); and, M. Cranney et al. Biochem. Biophys. ACTA 735, 418-425, which are incorporated herein by reference. The quenching studies were conducted using 0.5M iodide in PBS buffer.
The quenching of fluorescence of both camptothecin free in PBS and liposome membrane bound camptothecin by iodide ions was conducted at a constant halide concentration of 0.5M, in the presence of 2 mM sodium thiosulfate to prevent the oxidation of iodide. The camptothecin concentration was 1×10^-6 M and the iodide concentration was varied from 0 to 0.5M, and the chloride concentration was adjusted accordingly. The quenching experiments for the camptothecin bound to DMPC or DMPG liposome membranes were done at a lipid concentration of 100 mg/mL, so that the fraction of the bound camptothecin was more than 97%.
Fluorescence of the liposome membrane bound camptothecin is quenched to relatively lower extent, for instance, F0 /F, for camptothecin bound to DMPC liposomes is only 4.1 (see Plot C). Also, there is a clear cut upward curvature in the F0 /F vs. [I] plot (curve "A", […]) for camptothecin free in PBS whereas F0 /F vs. [I] plot for camptothecin bound with DMPC membranes is linear. Quenching of fluorescence is believed to proceed via the dynamic (or collisional) and static quenching processes. Fluorescence quenching by a quencher molecule in contact with the fluorophore at the instant of excitation is considered to be static quenching. The static and dynamic quenching processes are separated by the following modified form of the Stern-Volmer equation (Eftink & Ghiron, 1976): […]
where, V is the static quenching constant and Ksv the dynamic or collisional quenching constant. The V and Ksv values were obtained by fitting the quenching data to equation 3 with a value of V which gave the best correlation coefficient for the plot of F0 /Fe^v[Q] vs. [Q]. The upward curvature of the quenching data of free camptothecin free in PBS seen in FIG. 8 could be attributed to the static quenching process. The straight line "B", which is tangential to the F0 /F vs. [I] plot for free camptothecin in PBS, represents the dynamic part of the iodide quenching of camptothecin fluorescence, the slope of which is equal to Ksv (slope=44 3M^-1 where V=14M^-1 correlation coefficient=0.9993). The Stern-Volmer plot for the liposome bound camptothecin is linear, curve "C", FIG. 8, the slope being 6.1M^-1. […] The dashed line represents the static and dynamic quenching components camptothecin free in solution is determined by F0 /F values.

Where [5] appears, read: bound to DMPC liposomes, iodide.

Consider `CCC1(O)C(=O)OCc2c1cc1n(c2=O)Cc2cc3cc(O)ccc3nc2-1` (stereo not shown) [10-hydroxycamptothecin], for which, in data set [1], the “steady-state anisotropy (a), DMPC” value is listed as 0.191; the “steady-state anisotropy (a), DMPG” value was determined as 0.201; the “steady-state anisotropy (a), PBS” value turned out to be 0.021; the “limiting fluorescence anisotropy a0” value was 0.372. Further, in data set [1], the “steady-state anisotropy (a), glycerol” value is recorded as 0.331 and the “steady-state anisotropy (a), octanol” value is on record as 0.127.
Take `CCC1(O)C(=O)OCc2c1cc1n(c2=O)Cc2cc3c(Cl)c4c(cc3nc2-1)OCO4` (stereo not shown) [9-chloro-10,11-methylenedioxycamptothecin]: in data set [1], the “steady-state anisotropy (a), DMPC” value turned out to be 0.202; the “steady-state anisotropy (a), DMPG” value is given as 0.207; the “steady-state anisotropy (a), PBS” value was 0.025; the “limiting fluorescence anisotropy a0” value was 0.367. Moreover, in data set [1], the “steady-state anisotropy (a), glycerol” value came out at 0.363 and the “steady-state anisotropy (a), octanol” value worked out at 0.098.
On to `CC[C@@]1(O)C(=O)OCc2c1cc1n(c2=O)Cc2cc3c(CN(C)C)c(O)ccc3nc2-1` [topotecan], for which, in data set [1], the “steady-state anisotropy (a), DMPC” value was 0.125; the “steady-state anisotropy (a), DMPG” value is given as 0.170; the “steady-state anisotropy (a), DSPC” value came out at 0.059; the “steady-state anisotropy (a), PBS” value is listed as 0.008. For the same molecule, in data set [1], the “limiting fluorescence anisotropy a0” value is given as 0.367; the “steady-state anisotropy (a), glycerol” value was determined as 0.320; the “steady-state anisotropy (a), octanol” value is recorded as 0.071.
`CC[C@@]1(O)C(=O)OCc2c1cc1n(c2=O)Cc2cc3ccccc3nc2-1` [camptothecin]: the “effectiveness against other experimental cancer types” value in data set [2] is “effective against other experimental cancer types such as lung, breast, and malignant melanoma”. Moreover, in data set [1], the “steady-state anisotropy (a), DMPC” value was 0.127; the “steady-state anisotropy (a), DMPG” value was determined as 0.122; the “steady-state anisotropy (a), DSPC” value came out at 0.087; the “steady-state anisotropy (a), PBS” value was found to be 0.007. In addition, in data set [1], the “limiting fluorescence anisotropy a0” value was 0.383; the “steady-state anisotropy (a), glycerol” value is on record as 0.334; the “steady-state anisotropy (a), octanol” value is 0.051. The “enhancement in steady-state anisotropy (a) value” in data set [1] (bound to DMPG liposomes) is 17 -fold. In addition, in data set [3] (DSPC liposomes, pH 7.4, 37° C.), the “t1/2 drug DSPC Lip.” value is recorded as ~ 100 min. For the same molecule, in data set [4] (DMPC or DMPG, lipid 100 mg/mL), the “fraction of bound camptothecin in quenching experiments” value was “more than 97%”. Also, in data set [4] (bound to DMPC liposomes, 0.5M iodide), the “F0/F (iodide quenching), DMPC-bound” value came to 4.1. Further, in data set [4] (setting [5]), the “dynamic quenching constant Ksv (slope), DMPC-bound” value is 6.1 M⁻¹ and 6.2 M⁻¹; the “static quenching constant V, DMPC-bound” value amounted to 0 M⁻¹. Moreover, in data set [4] (free in PBS pH 7.4, 0.5M iodide), the “F0/F (iodide quenching), free” value is on record as “about 54.3”. Moreover, the “dynamic quenching constant Ksv, free” value in data set [4] (free in PBS, iodide) was found to be 44.3 M⁻¹.
`CCC1(O)C(=O)OCc2c1cc1n(c2=O)Cc2cc3cc4c(cc3nc2-1)OCO4` (stereo not shown) [10,11-methylenedioxycamptothecin]: in data set [1], the “steady-state anisotropy (a), DMPC” value is 0.168; the “steady-state anisotropy (a), DMPG” value is reported as 0.206; the “steady-state anisotropy (a), PBS” value was 0.021; the “limiting fluorescence anisotropy a0” value is listed as 0.374. Moreover, in data set [1], the “steady-state anisotropy (a), glycerol” value is listed as 0.357 and the “steady-state anisotropy (a), octanol” value is 0.089. In addition, in data set [3] (SDS micelles, about 2.5 hours), the “drug not hydrolysed at about 2.5 hours” value is reported as “about 75%”. The “t1/2, octylphenolpolyoxyethylene micelles” value in data set [3] (octylphenolpolyoxyethylene micelles, PBS pH 7.4) turned out to be 90 min.
